# Numbers after ± are expanded uncertainties.
# Experiment: refractive index (other wavelength) (dimensionless); xn = mol fraction of the nth substance listed
# Conditions: 293.15 K, 94.64 kPa, Liquid, Standard Abbe refractometry
smiles,measurement,setting,value
CC(=O)O [acetic acid] + Cc1ccccc1,refractive index,"Wavelength=404.7 nm, x1 = 0.146",1.51185 ± 0.00045
same,refractive index,"Wavelength=404.7 nm, x1 = 0.277",1.49627 ± 0.00046
same,refractive index,"Wavelength=404.7 nm, x1 = 0.397",1.48254 ± 0.00043
same,refractive index,"Wavelength=404.7 nm, x1 = 0.506",1.46794 ± 0.00043
same,refractive index,"Wavelength=404.7 nm, x1 = 0.605",1.45403 ± 0.00041
same,refractive index,"Wavelength=404.7 nm, x1 = 0.697",1.43966 ± 0.00041
same,refractive index,"Wavelength=404.7 nm, x1 = 0.782",1.42556 ± 0.0004
same,refractive index,"Wavelength=404.7 nm, x1 = 0.859",1.41172 ± 0.00038
same,refractive index,"Wavelength=404.7 nm, x1 = 0.897",1.40081 ± 0.00041
same,refractive index,"Wavelength=404.7 nm, x1 = 0.932",1.39511 ± 0.00039
same,refractive index,"Wavelength=404.7 nm, x1 = 0.967",1.38917 ± 0.00038
same,refractive index,"Wavelength=404.7 nm, x1 = 1",1.38345 ± 0.00037
same,refractive index,"Wavelength=435.8 nm, x1 = 0.146",1.50406 ± 0.00044
same,refractive index,"Wavelength=435.8 nm, x1 = 0.277",1.48902 ± 0.00043
same,refractive index,"Wavelength=435.8 nm, x1 = 0.397",1.47576 ± 0.00042
same,refractive index,"Wavelength=435.8 nm, x1 = 0.506",1.46165 ± 0.00041
same,refractive index,"Wavelength=435.8 nm, x1 = 0.605",1.44826 ± 0.00041
same,refractive index,"Wavelength=435.8 nm, x1 = 0.697",1.43437 ± 0.0004
same,refractive index,"Wavelength=435.8 nm, x1 = 0.782",1.42081 ± 0.00039
same,refractive index,"Wavelength=435.8 nm, x1 = 0.859",1.40749 ± 0.00039
same,refractive index,"Wavelength=435.8 nm, x1 = 0.897",1.397 ± 0.00039
same,refractive index,"Wavelength=435.8 nm, x1 = 0.932",1.39153 ± 0.00038
same,refractive index,"Wavelength=435.8 nm, x1 = 0.967",1.38582 ± 0.00038
same,refractive index,"Wavelength=435.8 nm, x1 = 1",1.38034 ± 0.00037
same,refractive index,"Wavelength=486.1 nm, x1 = 0.146",1.49519 ± 0.00042
same,refractive index,"Wavelength=486.1 nm, x1 = 0.277",1.48081 ± 0.00041
same,refractive index,"Wavelength=486.1 nm, x1 = 0.397",1.4681 ± 0.0004
same,refractive index,"Wavelength=486.1 nm, x1 = 0.506",1.45457 ± 0.0004
same,refractive index,"Wavelength=486.1 nm, x1 = 0.605",1.44171 ± 0.00039
same,refractive index,"Wavelength=486.1 nm, x1 = 0.697",1.4285 ± 0.00039
same,refractive index,"Wavelength=486.1 nm, x1 = 0.782",1.41549 ± 0.00038
same,refractive index,"Wavelength=486.1 nm, x1 = 0.859",1.40275 ± 0.00038
same,refractive index,"Wavelength=486.1 nm, x1 = 0.897",1.39273 ± 0.00038
same,refractive index,"Wavelength=486.1 nm, x1 = 0.932",1.3875 ± 0.00039
same,refractive index,"Wavelength=486.1 nm, x1 = 0.967",1.38206 ± 0.00037
same,refractive index,"Wavelength=486.1 nm, x1 = 1",1.37681 ± 0.00037
same,refractive index,"Wavelength=546.1 nm, x1 = 0.146",1.48808 ± 0.00041
same,refractive index,"Wavelength=546.1 nm, x1 = 0.277",1.47416 ± 0.0004
same,refractive index,"Wavelength=546.1 nm, x1 = 0.397",1.46191 ± 0.0004
same,refractive index,"Wavelength=546.1 nm, x1 = 0.506",1.44883 ± 0.00039
same,refractive index,"Wavelength=546.1 nm, x1 = 0.605",1.43642 ± 0.00039
same,refractive index,"Wavelength=546.1 nm, x1 = 0.697",1.42367 ± 0.00038
same,refractive index,"Wavelength=546.1 nm, x1 = 0.782",1.41115 ± 0.00038
same,refractive index,"Wavelength=546.1 nm, x1 = 0.859",1.39886 ± 0.00038
same,refractive index,"Wavelength=546.1 nm, x1 = 0.897",1.38919 ± 0.00038
same,refractive index,"Wavelength=546.1 nm, x1 = 0.932",1.38415 ± 0.00038
same,refractive index,"Wavelength=546.1 nm, x1 = 0.967",1.37892 ± 0.00037
same,refractive index,"Wavelength=546.1 nm, x1 = 1",1.37386 ± 0.00036
same,refractive index,"Wavelength=587.6 nm, x1 = 0.146",1.4846 ± 0.0004
same,refractive index,"Wavelength=587.6 nm, x1 = 0.277",1.47093 ± 0.0004
same,refractive index,"Wavelength=587.6 nm, x1 = 0.397",1.45889 ± 0.00039
same,refractive index,"Wavelength=587.6 nm, x1 = 0.506",1.44603 ± 0.00039
same,refractive index,"Wavelength=587.6 nm, x1 = 0.605",1.43382 ± 0.00038
same,refractive index,"Wavelength=587.6 nm, x1 = 0.697",1.42129 ± 0.00038
same,refractive index,"Wavelength=587.6 nm, x1 = 0.782",1.40899 ± 0.00038
same,refractive index,"Wavelength=587.6 nm, x1 = 0.859",1.39688 ± 0.00037
same,refractive index,"Wavelength=587.6 nm, x1 = 0.897",1.38738 ± 0.00037
same,refractive index,"Wavelength=587.6 nm, x1 = 0.932",1.38242 ± 0.00039
same,refractive index,"Wavelength=587.6 nm, x1 = 0.967",1.37727 ± 0.00037
same,refractive index,"Wavelength=587.6 nm, x1 = 1",1.3723 ± 0.00036
same,refractive index,"Wavelength=632.8 nm, x1 = 0.146",1.48156 ± 0.0004
same,refractive index,"Wavelength=632.8 nm, x1 = 0.277",1.4681 ± 0.0004
same,refractive index,"Wavelength=632.8 nm, x1 = 0.397",1.45622 ± 0.00038
same,refractive index,"Wavelength=632.8 nm, x1 = 0.506",1.44355 ± 0.00038
same,refractive index,"Wavelength=632.8 nm, x1 = 0.605",1.43151 ± 0.00038
same,refractive index,"Wavelength=632.8 nm, x1 = 0.697",1.41917 ± 0.00037
same,refractive index,"Wavelength=632.8 nm, x1 = 0.782",1.40703 ± 0.00037
same,refractive index,"Wavelength=632.8 nm, x1 = 0.859",1.3951 ± 0.00038
same,refractive index,"Wavelength=632.8 nm, x1 = 0.897",1.38572 ± 0.0004
same,refractive index,"Wavelength=632.8 nm, x1 = 0.932",1.38084 ± 0.00037
same,refractive index,"Wavelength=632.8 nm, x1 = 0.967",1.37577 ± 0.00037
same,refractive index,"Wavelength=632.8 nm, x1 = 1",1.37087 ± 0.00036

# Reference: the NIST ThermoML archive (doi:10.1021/acs.jced.5b00197)
